Results: ChEMBL document CHEMBL5154747, “Discovery of new carbonic anhydrase IX inhibitors as anticancer agents by toning the hydrophobic and hydrophilic rims of the active site to encounter the dual-tail approach” (Eur J Med Chem, 2022)

Each compound was assayed on U-251 (assay: Anticancer activity against human U-251 cells assessed as cell growth inhibition at 10 uM incubated for 48 hrs by SRB assay relative to control). Conditions: read-out: GI.
Assay type: functional
In the case of `NS(=O)(=O)c1ccc(Nc2nc(N/N=C/c3cccs3)nc(Nc3ccccc3)n2)cc1`, the inhibition of growth at 10 µM is reported as under 10%.

The compounds below were run on LOX IMVI (assay: Anticancer activity against human LOX IMVI cells assessed as cell growth inhibition at 10 uM incubated for 48 hrs by SRB assay relative to control). Conditions: read-out: GI.
Assay type: functional
`NS(=O)(=O)c1ccc(Nc2nc(N/N=C/c3cccs3)nc(Nc3ccccc3)n2)cc1` was tested, and the inhibition of growth at 10 µM was 32%.

What follows are compounds tested on Malme-3M (assay: Anticancer activity against human Malme-3M cells assessed as cell growth inhibition at 10 uM incubated for 48 hrs by SRB assay relative to control). Conditions: read-out: GI.
Assay type: functional
With `NS(=O)(=O)c1ccc(Nc2nc(N/N=C/c3cccs3)nc(Nc3ccccc3)n2)cc1` the inhibition of growth at 10 µM was 20%.

What follows are compounds tested on SK-MEL-28 (assay: Anticancer activity against human SK-MEL-28 cells assessed as cell growth inhibition at 10 uM incubated for 48 hrs by SRB assay relative to control). Conditions: read-out: GI.
Assay type: functional
`NS(=O)(=O)c1ccc(Nc2nc(N/N=C/c3cccs3)nc(Nc3ccccc3)n2)cc1` gave an inhibition of growth at 10 µM of 20%.

What follows are compounds tested on SK-MEL-5 (assay: Anticancer activity against human SK-MEL-5 cells assessed as cell growth inhibition at 10 uM incubated for 48 hrs by SRB assay relative to control). Conditions: read-out: GI.
Assay type: functional
With `NS(=O)(=O)c1ccc(Nc2nc(N/N=C/c3cccs3)nc(Nc3ccccc3)n2)cc1` the inhibition of growth at 10 µM was 26%.

These compounds were tested on UACC-62 (assay: Anticancer activity against human UACC-62 cells assessed as cell growth inhibition at 10 uM incubated for 48 hrs by SRB assay relative to control). Conditions: read-out: GI.
Assay type: functional
`NS(=O)(=O)c1ccc(Nc2nc(N/N=C/c3cccs3)nc(Nc3ccccc3)n2)cc1` showed an inhibition of growth at 10 µM of 24%.

The compounds below were run on IGROV-1 (assay: Anticancer activity against human IGROV-1 cells assessed as cell growth inhibition at 10 uM incubated for 48 hrs by SRB assay relative to control). Conditions: read-out: GI.
Assay type: functional
`NS(=O)(=O)c1ccc(Nc2nc(N/N=C/c3cccs3)nc(Nc3ccccc3)n2)cc1` gave an inhibition of growth at 10 µM of 65%.

Each compound was assayed on OVCAR-3 (assay: Anticancer activity against human OVCAR-3 cells assessed as cell growth inhibition at 10 uM incubated for 48 hrs by SRB assay relative to control). Conditions: read-out: GI.
Assay type: functional
For `NS(=O)(=O)c1ccc(Nc2nc(N/N=C/c3cccs3)nc(Nc3ccccc3)n2)cc1`, the inhibition of growth at 10 µM was 35%.

These compounds were tested on OVCAR-5 (assay: Anticancer activity against human OVCAR-5 cells assessed as cell growth inhibition at 10 uM incubated for 48 hrs by SRB assay relative to control). Conditions: read-out: GI.
Assay type: functional
For `NS(=O)(=O)c1ccc(Nc2nc(N/N=C/c3cccs3)nc(Nc3ccccc3)n2)cc1`, the inhibition of growth at 10 µM was 19%.

Each compound was assayed on OVCAR-8 (assay: Anticancer activity against human OVCAR-8 cells assessed as cell growth inhibition at 10 uM incubated for 48 hrs by SRB assay relative to control). Conditions: read-out: GI.
Assay type: functional
For `NS(=O)(=O)c1ccc(Nc2nc(N/N=C/c3cccs3)nc(Nc3ccccc3)n2)cc1`, the inhibition of growth at 10 µM was 29%.

The compounds below were run on SK-OV-3 (assay: Anticancer activity against human SK-OV-3 cells assessed as cell growth inhibition at 10 uM incubated for 48 hrs by SRB assay relative to control). Conditions: read-out: GI.
Assay type: functional
Compound `NS(=O)(=O)c1ccc(Nc2nc(N/N=C/c3cccs3)nc(Nc3ccccc3)n2)cc1` has an inhibition of growth at 10 µM of under 10%.

What follows are compounds tested on 786-0 (assay: Anticancer activity against human 786-0 cells assessed as cell growth inhibition at 10 uM incubated for 48 hrs by SRB assay relative to control). Conditions: read-out: GI.
Assay type: functional
Compound `NS(=O)(=O)c1ccc(Nc2nc(N/N=C/c3cccs3)nc(Nc3ccccc3)n2)cc1` has an inhibition of growth at 10 µM of 13%.

These compounds were tested on ACHN (assay: Anticancer activity against human ACHN cells assessed as cell growth inhibition at 10 uM incubated for 48 hrs by SRB assay relative to control). Conditions: read-out: GI.
Assay type: functional
For `NS(=O)(=O)c1ccc(Nc2nc(N/N=C/c3cccs3)nc(Nc3ccccc3)n2)cc1`, the inhibition of growth at 10 µM was 21%.

The compounds below were run on CAKI-1 (assay: Anticancer activity against human CAKI-1 cells assessed as cell growth inhibition at 10 uM incubated for 48 hrs by SRB assay relative to control). Conditions: read-out: GI.
Assay type: functional
Compound `NS(=O)(=O)c1ccc(Nc2nc(N/N=C/c3cccs3)nc(Nc3ccccc3)n2)cc1` has an inhibition of growth at 10 µM of 44%.

What follows are compounds tested on RXF 393 (assay: Anticancer activity against human RXF 393 cells assessed as cell growth inhibition at 10 uM incubated for 48 hrs by SRB assay relative to control). Conditions: read-out: GI.
Assay type: functional
In the case of `NS(=O)(=O)c1ccc(Nc2nc(N/N=C/c3cccs3)nc(Nc3ccccc3)n2)cc1`, the inhibition of growth at 10 µM is reported as 52%.

What follows are compounds tested on SN12C (assay: Anticancer activity against human SN12C cells assessed as cell growth inhibition at 10 uM incubated for 48 hrs by SRB assay relative to control). Conditions: read-out: GI.
Assay type: functional
`NS(=O)(=O)c1ccc(Nc2nc(N/N=C/c3cccs3)nc(Nc3ccccc3)n2)cc1` gave an inhibition of growth at 10 µM of 13%.

These compounds were tested on UO-31 (assay: Anticancer activity against human UO-31 cells assessed as cell growth inhibition at 10 uM incubated for 48 hrs by SRB assay relative to control). Conditions: read-out: GI.
Assay type: functional
In the case of `NS(=O)(=O)c1ccc(Nc2nc(N/N=C/c3cccs3)nc(Nc3ccccc3)n2)cc1`, the inhibition of growth at 10 µM is reported as 16%.

Each compound was assayed on Hs-578T (assay: Anticancer activity against human Hs-578T cells assessed as cell growth inhibition at 10 uM incubated for 48 hrs by SRB assay relative to control). Conditions: read-out: GI.
Assay type: functional
`NS(=O)(=O)c1ccc(Nc2nc(N/N=C/c3cccs3)nc(Nc3ccccc3)n2)cc1` was tested, and the inhibition of growth at 10 µM was 34%.

The compounds below were run on T47D (assay: Anticancer activity against human T47D cells assessed as cell growth inhibition at 10 uM incubated for 48 hrs by SRB assay relative to control). Conditions: read-out: GI.
Assay type: functional
In the case of `NS(=O)(=O)c1ccc(Nc2nc(N/N=C/c3cccs3)nc(Nc3ccccc3)n2)cc1`, the inhibition of growth at 10 µM is reported as 38%.

What follows are compounds tested on MDA-MB-468 (assay: Anticancer activity against human MDA-MB-468 cells assessed as cell growth inhibition at 10 uM incubated for 48 hrs by SRB assay relative to control). Conditions: read-out: GI.
Assay type: functional
For `NS(=O)(=O)c1ccc(Nc2nc(N/N=C/c3cccs3)nc(Nc3ccccc3)n2)cc1`, the inhibition of growth at 10 µM was 50%.
